Source: ChEMBL document CHEMBL5291721, “A preclinical secondary pharmacology resource illuminates target-adverse drug reaction associations of marketed drugs” (Nat Commun, 2023)

What was measured:
Androgen receptor = molecular target: T1, Androgen receptor (Rattus norvegicus, UniProt P15207)
T1 sequence (P15207 whole entry): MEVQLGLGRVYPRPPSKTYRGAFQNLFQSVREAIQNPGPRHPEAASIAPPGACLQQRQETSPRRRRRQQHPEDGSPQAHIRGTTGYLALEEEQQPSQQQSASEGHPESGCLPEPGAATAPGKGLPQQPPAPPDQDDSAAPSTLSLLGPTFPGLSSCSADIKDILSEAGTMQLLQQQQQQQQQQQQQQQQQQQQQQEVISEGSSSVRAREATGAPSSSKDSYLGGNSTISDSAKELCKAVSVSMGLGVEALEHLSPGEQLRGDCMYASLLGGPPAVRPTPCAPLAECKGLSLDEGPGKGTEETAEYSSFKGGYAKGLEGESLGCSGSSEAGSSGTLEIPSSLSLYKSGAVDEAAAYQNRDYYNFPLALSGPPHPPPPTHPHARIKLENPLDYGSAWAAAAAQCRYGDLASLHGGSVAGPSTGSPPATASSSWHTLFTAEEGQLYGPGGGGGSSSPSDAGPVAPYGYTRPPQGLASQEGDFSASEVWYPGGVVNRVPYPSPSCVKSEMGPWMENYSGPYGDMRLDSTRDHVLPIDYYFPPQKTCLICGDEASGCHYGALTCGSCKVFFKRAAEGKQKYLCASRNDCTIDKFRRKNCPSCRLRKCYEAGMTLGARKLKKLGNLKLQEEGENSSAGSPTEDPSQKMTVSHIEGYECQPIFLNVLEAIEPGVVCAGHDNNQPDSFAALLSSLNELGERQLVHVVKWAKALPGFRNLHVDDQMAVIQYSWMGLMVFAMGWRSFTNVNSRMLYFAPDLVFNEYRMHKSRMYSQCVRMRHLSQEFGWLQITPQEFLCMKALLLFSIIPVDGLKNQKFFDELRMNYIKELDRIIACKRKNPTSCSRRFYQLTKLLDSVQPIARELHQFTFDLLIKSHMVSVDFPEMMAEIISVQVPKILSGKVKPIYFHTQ

[1] = molecular target: T2, Muscarinic acetylcholine receptor M5 (Homo sapiens, UniProt P08912)
T2 sequence (P08912 whole entry): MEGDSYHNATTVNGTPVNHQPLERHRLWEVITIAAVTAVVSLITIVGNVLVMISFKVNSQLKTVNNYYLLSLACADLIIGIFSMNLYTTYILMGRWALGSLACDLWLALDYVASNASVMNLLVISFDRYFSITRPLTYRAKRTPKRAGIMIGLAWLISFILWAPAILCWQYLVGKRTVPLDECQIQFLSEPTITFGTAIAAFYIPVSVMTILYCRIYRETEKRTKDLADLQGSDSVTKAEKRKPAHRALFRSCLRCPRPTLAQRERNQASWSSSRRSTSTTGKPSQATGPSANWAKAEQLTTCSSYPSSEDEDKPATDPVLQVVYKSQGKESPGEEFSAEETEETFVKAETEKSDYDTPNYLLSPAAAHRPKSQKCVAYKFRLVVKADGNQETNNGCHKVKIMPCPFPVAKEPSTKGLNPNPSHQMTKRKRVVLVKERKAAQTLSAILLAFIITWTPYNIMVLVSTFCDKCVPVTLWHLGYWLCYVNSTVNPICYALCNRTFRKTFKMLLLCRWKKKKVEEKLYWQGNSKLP

[2] = molecular target: 5-hydroxytryptamine receptor 6 (Homo sapiens, UniProt P50406)
D(4) dopamine receptor = molecular target: T3, D(4) dopamine receptor (Homo sapiens, UniProt P21917)
T3 sequence (P21917 whole entry): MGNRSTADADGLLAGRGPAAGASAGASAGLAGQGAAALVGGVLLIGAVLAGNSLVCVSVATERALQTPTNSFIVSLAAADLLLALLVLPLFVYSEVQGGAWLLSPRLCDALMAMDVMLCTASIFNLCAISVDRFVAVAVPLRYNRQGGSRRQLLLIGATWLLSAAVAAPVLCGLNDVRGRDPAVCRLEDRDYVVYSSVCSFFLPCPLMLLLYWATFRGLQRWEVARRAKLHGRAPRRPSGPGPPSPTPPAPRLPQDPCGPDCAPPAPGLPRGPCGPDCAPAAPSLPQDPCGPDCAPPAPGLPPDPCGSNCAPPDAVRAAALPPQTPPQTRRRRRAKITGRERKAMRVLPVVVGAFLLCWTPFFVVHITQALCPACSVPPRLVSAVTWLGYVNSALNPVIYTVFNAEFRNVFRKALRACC

[3] = molecular target: Rod cGMP-specific 3',5'-cyclic phosphodiesterase subunit alpha (Homo sapiens, UniProt P16499); format: functional
Substance-P receptor = Substance-P receptor (Homo sapiens, UniProt P25103)
[4] = molecular target: 5-hydroxytryptamine receptor 5A (Homo sapiens, UniProt P47898)
Substance-K receptor = molecular target: T4, Substance-K receptor (Homo sapiens, UniProt P21452)
T4 sequence (P21452 whole entry): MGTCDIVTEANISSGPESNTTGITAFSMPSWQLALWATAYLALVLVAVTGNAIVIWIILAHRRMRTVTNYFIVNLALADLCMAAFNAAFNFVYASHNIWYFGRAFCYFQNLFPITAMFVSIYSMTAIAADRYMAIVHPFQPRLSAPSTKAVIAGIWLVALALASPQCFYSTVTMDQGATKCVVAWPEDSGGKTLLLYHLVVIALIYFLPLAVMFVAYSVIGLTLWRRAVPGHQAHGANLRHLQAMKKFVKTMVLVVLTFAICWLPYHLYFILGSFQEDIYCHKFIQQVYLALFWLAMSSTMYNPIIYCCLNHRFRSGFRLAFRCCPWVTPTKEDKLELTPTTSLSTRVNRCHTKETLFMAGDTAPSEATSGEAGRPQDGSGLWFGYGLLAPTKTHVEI

[5] = molecular target: T5, Muscarinic acetylcholine receptor M4 (Homo sapiens, UniProt P08173)
T5 sequence (P08173 whole entry): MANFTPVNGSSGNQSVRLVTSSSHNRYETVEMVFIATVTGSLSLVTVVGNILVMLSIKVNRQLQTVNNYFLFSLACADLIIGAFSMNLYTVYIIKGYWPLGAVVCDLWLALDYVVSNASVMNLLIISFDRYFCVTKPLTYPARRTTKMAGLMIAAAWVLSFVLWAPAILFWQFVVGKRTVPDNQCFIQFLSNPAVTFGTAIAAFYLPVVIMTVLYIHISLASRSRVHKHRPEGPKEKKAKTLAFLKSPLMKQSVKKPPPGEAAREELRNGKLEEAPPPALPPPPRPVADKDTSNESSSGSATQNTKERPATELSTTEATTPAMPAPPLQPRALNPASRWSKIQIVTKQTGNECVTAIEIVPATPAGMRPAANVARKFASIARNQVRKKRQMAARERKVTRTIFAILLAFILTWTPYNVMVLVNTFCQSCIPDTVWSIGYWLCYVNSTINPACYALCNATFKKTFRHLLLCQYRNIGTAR
Further: assay procedure not described here.

Chain of Substance-P receptor (P25103 whole entry): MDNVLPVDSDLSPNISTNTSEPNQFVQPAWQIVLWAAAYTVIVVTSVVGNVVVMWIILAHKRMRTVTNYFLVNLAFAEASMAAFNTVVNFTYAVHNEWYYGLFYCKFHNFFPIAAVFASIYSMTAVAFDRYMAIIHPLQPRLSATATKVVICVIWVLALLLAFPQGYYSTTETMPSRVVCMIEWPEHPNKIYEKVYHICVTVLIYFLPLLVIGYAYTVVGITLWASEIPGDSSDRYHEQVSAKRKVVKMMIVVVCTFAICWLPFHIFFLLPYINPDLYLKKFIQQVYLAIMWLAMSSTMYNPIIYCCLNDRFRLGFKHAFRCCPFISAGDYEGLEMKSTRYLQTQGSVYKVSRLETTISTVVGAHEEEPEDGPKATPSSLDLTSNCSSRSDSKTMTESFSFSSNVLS
Chain of 5-hydroxytryptamine receptor 6 (P50406 whole entry): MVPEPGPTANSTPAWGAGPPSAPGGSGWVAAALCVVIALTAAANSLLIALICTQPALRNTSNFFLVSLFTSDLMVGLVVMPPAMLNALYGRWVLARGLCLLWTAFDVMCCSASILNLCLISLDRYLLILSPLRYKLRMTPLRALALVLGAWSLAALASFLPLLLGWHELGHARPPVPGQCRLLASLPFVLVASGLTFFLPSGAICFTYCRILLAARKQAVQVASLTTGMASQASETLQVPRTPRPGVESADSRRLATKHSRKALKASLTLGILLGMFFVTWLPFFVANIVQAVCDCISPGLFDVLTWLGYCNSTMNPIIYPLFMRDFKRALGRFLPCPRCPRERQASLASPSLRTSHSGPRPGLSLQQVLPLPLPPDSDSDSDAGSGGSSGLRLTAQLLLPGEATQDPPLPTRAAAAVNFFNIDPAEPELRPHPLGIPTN
Chain of 5-hydroxytryptamine receptor 5A (P47898 whole entry): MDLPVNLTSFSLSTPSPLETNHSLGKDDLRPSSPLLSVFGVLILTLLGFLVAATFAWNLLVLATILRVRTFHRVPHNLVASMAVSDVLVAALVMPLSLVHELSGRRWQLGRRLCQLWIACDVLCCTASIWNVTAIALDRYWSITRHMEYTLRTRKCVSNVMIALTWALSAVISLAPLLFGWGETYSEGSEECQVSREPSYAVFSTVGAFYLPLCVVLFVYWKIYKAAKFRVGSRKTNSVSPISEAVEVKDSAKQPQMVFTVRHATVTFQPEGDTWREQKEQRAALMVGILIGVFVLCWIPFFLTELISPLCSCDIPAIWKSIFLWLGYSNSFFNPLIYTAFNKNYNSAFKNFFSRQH
Chain of Rod cGMP-specific 3',5'-cyclic phosphodiesterase subunit alpha (P16499 whole entry): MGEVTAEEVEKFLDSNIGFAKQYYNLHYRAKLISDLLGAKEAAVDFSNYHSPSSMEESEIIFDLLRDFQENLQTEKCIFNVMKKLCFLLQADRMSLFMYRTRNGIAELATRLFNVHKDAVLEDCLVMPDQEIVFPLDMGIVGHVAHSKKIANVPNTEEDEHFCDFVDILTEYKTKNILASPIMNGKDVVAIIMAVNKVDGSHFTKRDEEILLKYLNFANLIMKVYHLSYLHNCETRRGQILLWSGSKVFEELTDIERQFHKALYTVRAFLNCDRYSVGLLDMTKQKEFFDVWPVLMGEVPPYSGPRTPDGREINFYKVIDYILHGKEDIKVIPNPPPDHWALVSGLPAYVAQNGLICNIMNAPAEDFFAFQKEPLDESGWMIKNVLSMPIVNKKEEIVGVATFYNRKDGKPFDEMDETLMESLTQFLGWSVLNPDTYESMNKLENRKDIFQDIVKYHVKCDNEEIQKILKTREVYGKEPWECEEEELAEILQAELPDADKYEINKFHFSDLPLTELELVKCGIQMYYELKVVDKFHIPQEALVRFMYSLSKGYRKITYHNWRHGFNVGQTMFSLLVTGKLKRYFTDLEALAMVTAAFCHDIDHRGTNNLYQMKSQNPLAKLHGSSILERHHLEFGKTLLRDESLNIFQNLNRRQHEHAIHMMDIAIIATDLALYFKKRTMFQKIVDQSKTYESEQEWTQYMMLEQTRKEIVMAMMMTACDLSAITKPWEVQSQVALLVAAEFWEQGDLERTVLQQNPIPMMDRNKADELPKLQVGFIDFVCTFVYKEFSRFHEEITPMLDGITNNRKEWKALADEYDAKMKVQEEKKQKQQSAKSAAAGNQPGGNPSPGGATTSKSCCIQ

| Compound | AC50 (Androgen receptor) [µM] | AC50 [2] [µM] | AC50 (D(4) dopamine receptor) [µM] | AC50 (Substance-P receptor) [µM] | also measured |
| --- | --- | --- | --- | --- | --- |
| C[N+](C)(C)CCOC(N)=O [CARBAMOYLCHOLINE] | > 10 | – | – | – | – |
| CN(C)[C@@H]1C(O)=C(C(N)=O)C(=O)[C@@]2(O)C(O)=C3C(=O)c4c(O)ccc(Cl)c4[C@@H](O)[C@H]3C[C@@H]12 [DEMECLOCYCLINE] | 2.6 | – | – | – | – |
| O=C(Nc1ccccc1)OCC(CN1CCCCC1)OC(=O)Nc1ccccc1 (stereo not given) [DIPERODON] | – | > 10 | 5.2 | > 10 | AC50 [1]: > 10 µM; AC50 [3]: > 10 µM; AC50 [4]: > 10 µM; AC50 (Substance-K receptor): > 10 µM; AC50 [5]: > 10 µM |
| CC(C)NCC1CCc2cc(CO)c([N+](=O)[O-])cc2N1 (stereo not given) [OXAMNIQUINE] | > 10 | – | – | – | – |
| CN(C)CCCN1c2ccccc2Sc2ccccc21 [PROMAZINE] | – | 0.242 | 0.551 | > 10 | AC50 [1]: 0.589 µM; AC50 [3]: > 10 µM; AC50 [4]: 0.823 µM; AC50 (Substance-K receptor): > 10 µM; AC50 [5]: 1.44 µM |
| O=P(O)(O)C(O)(Cc1cccnc1)P(=O)(O)O [RISEDRONIC ACID] | – | > 10 | > 10 | > 10 | – |
| O=C1CCC(N2C(=O)c3ccccc3C2=O)C(=O)N1 (stereo not given) [THALIDOMIDE] | – | – | > 10 | > 10 | – |
| CC(=O)N[C@H]1[C@H]([C@H](O)[C@H](O)CO)OC(C(=O)O)=C[C@@H]1N=C(N)N [ZANAMIVIR] | > 30 | – | – | – | – |
